Assay results published in patent US20260015350A1, “AZAQUINAZOLINE PAN-KRAS INHIBITORS” (Mirati Therapeutics, Inc., priority 2022, published 2026).

Assays:
KRas^G12D = target: T1, KRas^G12D (Homo sapiens, UniProt P01116, G12D); assay: KRas binding assay (TR-FRET tracer displacement), KRas G12D
T1 construct: Biotinylated KRas (corresponding to amino acids 1-169, produced at Accelegan Inc.); biotin (biotinylated); purchased Accelegan Inc

KRas^G12R = target: T2, KRas^G12R (Homo sapiens, UniProt P01116, G12R); assay: KRas binding assay (TR-FRET tracer displacement), KRas G12R
T2 construct: Biotinylated KRas (corresponding to amino acids 1-169, produced at Accelegan Inc.); biotin (biotinylated); purchased Accelegan Inc

KRas^G12V = target: T3, KRas^G12V (Homo sapiens, UniProt P01116, G12V); assay: KRas binding assay (TR-FRET tracer displacement), KRas G12V
T3 construct: Biotinylated KRas (corresponding to amino acids 1-169, produced at Accelegan Inc.); biotin (biotinylated); purchased Accelegan Inc

[1] = tested on: KRas-mediated phosphorylation of ERK in MKN1 cells; assay: Inhibition of KRas-mediated phosphorylation of ERK (Cisbio HTRF pERK), MKN1 cells; type: cell-based; conditions: Homo sapiens, MKN-1
Experimental: (§1) Inhibition of KRas Phosphorylation of ERK (HTRF) by Exemplary Compounds of Formula (I)
(§2) Cisbio HTRF Advanced PERK Assay Catalog #64AERPEH
(§3) Day 1: Seed 6,000 cells/well-25 μl/well in 384-well white solid bottom plate; RPM1_10% FBS. Incubate overnight at 37° C./5% CO2.
(§4) Incubate for 4 hours at room temperature covered.
(§5) Read HTRF using ClarioStar

[2] = tested on: KRas-mediated phosphorylation of ERK in PSN1 cells; assay: Inhibition of KRas-mediated phosphorylation of ERK (Cisbio HTRF pERK), PSN1 cells; type: cell-based; conditions: Homo sapiens
Experimental: as §1, §2, §3, §4, §5

[3] = tested on: KRas-mediated phosphorylation of ERK in AsPC-1 cells; assay: Inhibition of KRas-mediated phosphorylation of ERK (Cisbio HTRF pERK), AsPC-1 cells; type: cell-based; conditions: Homo sapiens, ASPC1, AsPC-1 cells; HTRF pERK
Procedure, shortened: (§6)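 Each compound was tested at 10 concentrations, threefold apart with 10 uM the highest, for 3 hrs on 6,000 seeded cells; final DMSO was 0.8% and Trametinib (0.2 uM) served as Min control. Lysed cells were analysed for pERK by HTRF.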

[4] = tested on: KRas-mediated phosphorylation of ERK in H727 cells; assay: Inhibition of KRas-mediated phosphorylation of ERK (Cisbio HTRF pERK), H727 cells; type: cell-based; conditions: Homo sapiens, NCI-H727, H727 cells; HTRF pERK
Procedure, shortened: as §6

T2 sequence (P01116 1-169 isoform P01116-2 G12R): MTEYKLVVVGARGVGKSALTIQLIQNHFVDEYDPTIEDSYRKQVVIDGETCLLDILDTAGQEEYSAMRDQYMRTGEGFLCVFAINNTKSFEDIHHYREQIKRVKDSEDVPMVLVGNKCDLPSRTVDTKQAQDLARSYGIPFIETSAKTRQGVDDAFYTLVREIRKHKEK
T1 sequence (P01116 1-169 isoform P01116-2 G12D): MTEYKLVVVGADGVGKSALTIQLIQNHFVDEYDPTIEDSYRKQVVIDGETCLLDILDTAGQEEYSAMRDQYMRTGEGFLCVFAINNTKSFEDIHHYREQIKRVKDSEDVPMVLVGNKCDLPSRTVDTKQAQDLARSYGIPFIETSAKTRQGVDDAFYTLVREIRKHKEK
T3 sequence (P01116 1-169 isoform P01116-2 G12V): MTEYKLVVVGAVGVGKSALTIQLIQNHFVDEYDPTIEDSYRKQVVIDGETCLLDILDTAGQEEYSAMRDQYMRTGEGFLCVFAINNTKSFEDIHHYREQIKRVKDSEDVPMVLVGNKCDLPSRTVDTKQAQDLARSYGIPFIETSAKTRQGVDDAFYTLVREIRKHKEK

| SMILES | IC50 (KRas^G12D) [nM] | IC50 (KRas^G12R) [nM] | IC50 (KRas^G12V) [nM] | IC50 [1] [nM] | IC50 [2] [nM] | IC50 [3] [nM] | IC50 [4] [nM] |
| --- | --- | --- | --- | --- | --- | --- | --- |
| CCc1c(F)ccc2cc(O)cc(-c3ncc4c(N5CC6CCCC(C6)C5)nc(OC[C@@]56CCCN5C[C@H](F)C6)nc4c3F)c12 [Example 551, 4-(4-(3-azabicyclo[3.3.1]nonan-3-yl)-8-fluoro-2-(((2R,7aS)-2-fluorotetrahydro-1H-pyrrolizin-7a(5H)-yl)methoxy)pyrido[4,3-d]pyrimidin-7-yl)-5-ethyl-6-fluoronaphthalen-2-ol] | 127 | 27 | 32 | 1460 | > 10000 | 2500 | 814 |
| CCc1c(F)ccc2cc(O)cc(-c3ncc4c(N5C[C@@H]6OCCN[C@@H]6C5)nc(OC[C@@]56CCCN5C[C@H](F)C6)nc4c3F)c12 [Example 555, 5-ethyl-6-fluoro-4-(8-fluoro-2-(((2R,7aS)-2-fluorotetrahydro-1H-pyrrolizin-7a(5H)-yl)methoxy)-4-(hexahydropyrrolo[3,4-b][1,4]oxazin-6 (2H)-yl)pyrido[4,3-d]pyrimidin-7-yl)naphthalen-2-ol] | 2030 | 2030 | 512 | 4020 | > 10000 | > 10000 | > 10000 |
| CCc1c(F)ccc2cc(O)cc(-c3ncc4c(N5CCCn6cnnc6C5)nc(OC[C@@]56CCCN5C[C@H](F)C6)nc4c3F)c12 [Example 563, 4-(4-(6,7-dihydro-5H-[1,2,4]triazolo[4,3-a][1,4]diazepin-8 (9H)-yl)-8-fluoro-2-(((2R,7aS)-2-fluorotetrahydro-1H-pyrrolizin-7a(5H)-yl)methoxy)pyrido[4,3-d]pyrimidin-7-yl)-5-ethyl-6-fluoronaphthalen-2-ol] | 85 | 238 | 100 | > 10000 | > 10000 | > 10000 | > 10000 |
| CCc1c(F)ccc2cc(O)cc(-c3ncc4c(NCC5CC(CO)NC5=O)nc(OC[C@@]56CCCN5C[C@H](F)C6)nc4c3F)c12 (stereo partly drawn) [Example 575, 3-(((7-(8-ethyl-7-fluoro-3-hydroxynaphthalen-1-yl)-8-fluoro-2-(((2R,7aS)-2-fluorotetrahydro-1H-pyrrolizin-7a(5H)-yl)methoxy)pyrido[4,3-d]pyrimidin-4-yl)amino)methyl)-5-(hydroxymethyl)pyrrolidin-2-one] | 25 | 27 | 7 | 417 | > 10000 | > 10000 | > 10000 |
| CCc1c(F)ccc2cc(O)cc(-c3ncc4c(N5CCC(S(C)(=N)=O)C5)nc(OC[C@@]56CCCN5C[C@H](F)C6)nc4c3F)c12 (stereo partly drawn) [Example 580, 5-ethyl-6-fluoro-4-(8-fluoro-2-(((2R,7aS)-2-fluorohexahydro-1H-pyrrolizin-7a-yl)methoxy) 4-(3-(S-methylsulfonimidoyl)pyrrolidin-1-yl)pyrido[4,3-d]pyrimidin-7-yl)naphthalen-2-ol] | 296 | 30 | 81 | 476 | > 10000 | > 10000 | > 10000 |
| CCc1c(F)ccc2cc(O)cc(-c3ncc4c(N5CCCS(=O)(=O)CC5)nc(OC[C@@]56CCCN5C[C@H](F)C6)nc4c3F)c12 [Example 583, 4-(7-(8-ethyl-7-fluoro-3-hydroxynaphthalen-1-yl)-8-fluoro-2-(((2R,7aS)-2-fluorohexahydro-1H-pyrrolizin-7a-yl)methoxy)pyrido[4,3-d]pyrimidin-4-yl)-1,4-thiazepane 1,1-dioxide] | 33 | 3 | 14 | 312 | > 10000 | 5380 | 2500 |
| CCc1c(F)ccc2cc(O)cc(-c3ncc4c(N5CCC6CNC(=O)NC6C5)nc(OC[C@@]56CCCN5C[C@H](F)C6)nc4c3F)c12 (stereo partly drawn) [Example 592, 7-(7-(8-ethyl-7-fluoro-3-hydroxynaphthalen-1-yl)-8-fluoro-2-(((2R,7aS)-2-fluorohexahydro-1H-pyrrolizin-7a-yl)methoxy)pyrido[4,3-d]pyrimidin-4-yl)octahydropyrido[3,4-d]pyrimidin-2(1H)-one] | 790 | 281 | 119 | > 10000 | > 10000 | > 10000 | > 10000 |
| CCc1c(F)ccc2cc(O)cc(-c3ncc4c(N5CCCC6(CCCCO6)C5)nc(OC[C@@]56CCCN5C[C@H](F)C6)nc4c3F)c12 (stereo partly drawn) [Example 594, 5-ethyl-6-fluoro-4-(8-fluoro-2-(((2R,7aS)-2-fluorotetrahydro-1H-pyrrolizin-7a(5H)-yl)methoxy)-4-(1-oxa-8-azaspiro[5.5]undecan-8-yl)pyrido[4,3-d]pyrimidin-7-yl)naphthalen-2-ol] | 91 | 53 | 80 | 2350 | > 10000 | 2810 | 2290 |
| CCc1c(F)ccc2cc(O)cc(-c3ncc4c(N5CCC(c6ccc(=O)[nH]n6)C5)nc(OC[C@@]56CCCN5C[C@H](F)C6)nc4c3F)c12 (stereo partly drawn) [Example 608, 6-(1-(7-(8-ethyl-7-fluoro-3-hydroxynaphthalen-1-yl)-8-fluoro-2-(((2R,7aS)-2-fluorotetrahydro-1H-pyrrolizin-7a(5H)-yl)methoxy)pyrido[4,3-d]pyrimidin-4-yl)pyrrolidin-3-yl)pyridazin-3 (2H)-one] | 1250 | 267 | 88 | > 10000 | > 10000 | > 10000 | > 10000 |
| CCc1c(F)ccc2cc(O)cc(-c3ncc4c(NCC5(C)CNS(=O)(=O)N5)nc(OC[C@@]56CCCN5C[C@H](F)C6)nc4c3F)c12 (stereo partly drawn) [Example 609, 3-(((7-(8-ethyl-7-fluoro-3-hydroxynaphthalen-1-yl)-8-fluoro-2-(((2R,7aS)-2-fluorohexahydro-1H-pyrrolizin-7a-yl)methoxy)pyrido[4,3-d]pyrimidin-4-yl)amino)methyl)-3-methyl-1,2,5-thiadiazolidine 1,1-dioxide] | < 2 | < 2 | < 2 | 92 | > 10000 | 1390 | 880 |
| CCc1c(F)ccc2cc(O)cc(-c3ncc4c(N5CCC(N6C(=O)CCC6=O)C5)nc(OC[C@@]56CCCN5C[C@H](F)C6)nc4c3F)c12 (stereo partly drawn) [Example 615, 1′-(7-(8-ethyl-7-fluoro-3-hydroxynaphthalen-1-yl)-8-fluoro-2-(((2R,7aS)-2-fluorotetrahydro-1H-pyrrolizin-7a(5H)-yl)methoxy)pyrido[4,3-d]pyrimidin-4-yl)-[1,3′-bipyrrolidine]-2,5-dione] | 1990 | 421 | 222 | 1530 | > 10000 | 7210 | > 10000 |
| CCc1c(F)ccc2cc(O)cc(-c3ncc4c(N5CCCCC(S(N)(=O)=O)C5)nc(OC[C@@]56CCCN5C[C@H](F)C6)nc4c3F)c12 (stereo partly drawn) [Example 633, 1-(7-(8-ethyl-7-fluoro-3-hydroxynaphthalen-1-yl)-8-fluoro-2-(((2R,7aS)-2-fluorohexahydro-1H-pyrrolizin-7a-yl)methoxy)pyrido[4,3-d]pyrimidin-4-yl)azepane-3-sulfonamide] | 8850 | 6610 | 2820 | > 10000 | > 10000 | > 10000 | > 10000 |
| CCc1c(F)ccc2cc(O)cc(-c3ncc4c(N5CCC[C@H](c6ccnn6C)CC5)nc(OC[C@@]56CCCN5C[C@H](F)C6)nc4c3F)c12 [Example 634, 5-ethyl-6-fluoro-4-(8-fluoro-2-(((2R,7aS)-2-fluorotetrahydro-1H-pyrrolizin-7a(5H)-yl)methoxy)-4-((S)-4-(1-methyl-1H-pyrazol-5-yl)azepan-1-yl)pyrido[4,3-d]pyrimidin-7-yl)naphthalen-2-ol] | 2240 | 839 | 262 | 2980 | > 10000 | > 10000 | 6210 |
| CCc1c(F)ccc2cc(O)cc(-c3ncc4c(NS(=O)(=O)C[C@H]5CNCCO5)nc(OC[C@@]56CCCN5C[C@H](F)C6)nc4c3F)c12 [Example 637, N-(7-(8-ethyl-7-fluoro-3-hydroxynaphthalen-1-yl)-8-fluoro-2-(((2R,7aS)-2-fluorotetrahydro-1H-pyrrolizin-7a(5H)-yl)methoxy)pyrido[4,3-d]pyrimidin-4-yl)-1-((R)-morpholin-2-yl)methanesulfonamide] | 1220 | 2250 | 3790 | > 10000 | > 10000 | > 10000 | > 10000 |
